Test [1] deals with T1, full-length human CSNK1A1 (Homo sapiens, UniProt P48729).
T1 construct: N-terminal Glutathion-S-Transferase (GST) and full-length human CSNK1A1; purchased Life Technologies PV4174; host or cells: baculovirus infected insect cells
The test can be described thus: CSNK1A1 Assay 2 (ADP-Glo, 1 μM ATP, substrate biotin-Ahx-KRRRAL-pS-VASLPGL). Type of test: biochemical. As to conditions: Table 3, read-out: CSNK1A1 Assay 2 IC50 [mol/l] (median). Summed up:
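GST-tagged full-length human CSNK1A1 from baculovirus-infected insect cells (about 0.0375 ng/μL), preincubated 15 min at 22 °C with compound in HEPES pH 7.5 buffer, with 1 μM ATP and biotin-Ahx-KRRRAL-pS-VASLPGL substrate. ADP formed read by ADP-Glo luminescence.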
On the technique in general: In ADP-Glo the light output rises with the ADP produced.

For test [2], the target named is T2, wild-type Epidermal Growth Factor Receptor (EGFR) (Homo sapiens, UniProt P00533).
T2 construct: a fragment of human EGFR (amino acids R669 to A1210); made in house; host or cells: Sf9 insect cells
T2 sequence (P00533 669-1210): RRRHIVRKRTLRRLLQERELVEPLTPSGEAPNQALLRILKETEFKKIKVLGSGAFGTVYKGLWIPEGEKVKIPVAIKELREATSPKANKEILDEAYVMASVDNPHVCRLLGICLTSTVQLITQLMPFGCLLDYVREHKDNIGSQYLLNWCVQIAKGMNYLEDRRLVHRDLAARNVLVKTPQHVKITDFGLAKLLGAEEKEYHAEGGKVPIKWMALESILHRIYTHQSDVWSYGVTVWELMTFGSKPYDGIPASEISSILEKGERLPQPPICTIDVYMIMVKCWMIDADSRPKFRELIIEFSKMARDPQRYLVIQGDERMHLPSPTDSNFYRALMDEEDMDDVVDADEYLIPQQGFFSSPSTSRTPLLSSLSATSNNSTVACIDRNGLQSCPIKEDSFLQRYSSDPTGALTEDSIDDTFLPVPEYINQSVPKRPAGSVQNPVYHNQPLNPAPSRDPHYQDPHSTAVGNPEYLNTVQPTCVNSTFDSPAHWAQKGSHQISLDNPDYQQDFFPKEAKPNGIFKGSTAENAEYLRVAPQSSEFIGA
The test can be described thus: WT-EGFR Kinase Assay (TR-FRET, 2 mM ATP). Format: biochemical. Summed up:
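GST-fused human EGFR fragment (R669-A1210) from Sf9 cells, typically 7.6 pg/μL, pre-incubated with compound 15 min at 22° C in Hepes pH 7.0 buffer with MgCl2, DTT and vanadate; biotinylated peptide substrate. After EDTA stop, phosphopeptide detected by TR-FRET (anti-phosphotyrosine Tb-cryptate/streptavidin-XL665), 665/620 nm emission ratio.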

The mark [3] stands for this setting: EGFR Wildtyp 2 mM ATP IC50 [mol/l] (median), Table 4.
[4] abbreviates: read-out: EGFR Wildtyp 2 mM ATP IC50 [mol/l] (median), Table 4.

Read-outs that look alike come from different tables or passages of the source.

T1 sequence (P48729 whole entry): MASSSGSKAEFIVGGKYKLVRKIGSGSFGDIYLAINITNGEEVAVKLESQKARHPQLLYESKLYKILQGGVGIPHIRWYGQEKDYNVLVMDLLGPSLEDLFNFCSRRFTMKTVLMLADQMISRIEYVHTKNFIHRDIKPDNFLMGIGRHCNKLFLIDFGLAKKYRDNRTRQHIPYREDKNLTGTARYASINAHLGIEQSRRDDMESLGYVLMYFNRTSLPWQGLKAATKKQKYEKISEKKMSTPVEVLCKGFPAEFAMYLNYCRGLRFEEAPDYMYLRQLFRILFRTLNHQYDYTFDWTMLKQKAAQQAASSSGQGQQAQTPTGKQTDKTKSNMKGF

Turning to `O=C(Nc1cc(-c2[nH]c3c(OC4CC4)cc(F)nc3c2-c2ccccn2)ccn1)C(CC(F)F)c1ccc(F)cc1` (stereo not shown) [Example 45], the IC50 was 22.3 nM in test [1] and over 20000 nM in test [2] (setting [3]).

Consider `Cc1cnc2c(-c3ccccn3)c(-c3ccnc(NC(=O)C(CC(F)F)c4ccc(F)cc4)c3)[nH]c2c1` (racemic) [Example 7, 4,4-difluoro-2-(4-fluorophenyl)-N-{4-[6-methyl-3-(pyridin-2-yl)-1H-pyrrolo[3,2-b]pyridin-2-yl]pyridin-2-yl}butanamide], for which the IC50 in test [1] was 2.76 nM; in test [2] (setting [3]), over 20000 nM.

Regarding `Cc1cc2[nH]c(-c3ccnc(NC(=O)C(CC(F)F)c4ccc(F)cc4)c3)c(-c3ccccn3)c2nc1F` (racemic) [Example 33, (rac)-4,4-difluoro-N-{4-[5-fluoro-6-methyl-3-(pyridin-2-yl)-1H-pyrrolo[3,2-b]pyridin-2-yl]pyridin-2-yl}-2-(4-fluorophenyl)butanamide], the IC50 in test [1] is 19.5 nM; in test [2] (setting [3]), over 20000 nM.

Regarding `Cc1ccc2[nH]c(-c3ccnc(NC(=O)C(CC(F)F)c4ccc(F)cc4)c3)c(-c3ccccn3)c2n1` (single isomer, unassigned) [Example 5, 4,4-difluoro-2-(4-fluorophenyl)-N-{4-[5-methyl-3-(pyridin-2-yl)-1H-pyrrolo[3,2-b]pyridin-2-yl]pyridin-2-yl}butanamide], the IC50 in test [1] is 4.43 nM; in test [2] (setting [3]), over 20000 nM.

As for `O=C(Nc1cc(-c2[nH]c3cc(F)cnc3c2-c2ccccn2)ccn1)C(CC(F)F)c1ccc(F)cc1` (single isomer, unassigned; (+)) [Example 17, (+)-4,4-difluoro-2-(4-fluorophenyl)-N-{4-[6-fluoro-3-(pyridin-2-yl)-1H-pyrrolo[3,2-b]pyridin-2-yl]pyridin-2-yl}butanamide], the figures for the IC50 in test [1] and in test [2] (setting [3]) were 1.7 nM and over 20000 nM, respectively.

As for `CC(C)(O)c1cc(F)nc2c(-c3ccccn3)c(-c3ccnc(NC(=O)C(CC(F)F)c4ccc(F)cc4)c3)[nH]c12` (single isomer, unassigned) [Example 100, (2R or S)-4,4-difluoro-N-{4-[5-fluoro-7-(2-hydroxypropan-2-yl)-3-(pyridin-2-yl)-1H-pyrrolo[3,2-b]pyridin-2-yl]pyridin-2-yl}-2-(4-fluorophenyl)butanamide], the results for the IC50 in test [1] and in test [2] (setting [4]) were 33.6 nM and over 20000 nM, respectively.

For `O=C(Nc1cc(-c2[nH]c3c(OCC(F)(F)F)ncnc3c2-c2ccccn2)ccn1)C(CC(F)(F)F)c1ccc(F)cc1` (single isomer, unassigned) [Example 127, (2R or S)-4,4,4-trifluoro-2-(4-fluorophenyl)-N-{4-[7-(pyridin-2-yl)-4-(2,2,2-trifluoroethoxy)-5H-pyrrolo[3,2-d]pyrimidin-6-yl]pyridin-2-yl}butanamide], the results for the IC50 in test [1] and in test [2] (setting [4]) were 85 nM and over 20000 nM, respectively.

In the case of `O=C(Nc1cc(-c2[nH]c3nccnc3c2-c2ccccn2)ccn1)[C@@H](CC(F)F)c1ccc(F)cc1` (single isomer, unassigned) [Example 32], the IC50 is 1.37 nM in test [1] and over 20000 nM in test [2] (setting [3]).

Consider `O=C(Nc1cc(-c2[nH]c3c(C4CCCO4)cc(F)nc3c2-c2ccccn2)ccn1)C(CC(F)F)c1ccc(F)cc1` (racemic) [Example 114, (2RS)-4,4-difluoro-2-(4-fluorophenyl)-N-(4-{5-fluoro-3-(pyridin-2-yl)-7-[(2RS)-tetrahydrofuran-2-yl]-1H-pyrrolo[3,2-b]pyridin-2-yl}pyridin-2-yl)butanamide], for which the IC50 was 6.74 nM in test [1] and over 20000 nM in test [2] (setting [3]).

Regarding `O=C(Nc1cc(-c2[nH]c3c(OCC(F)(F)F)ncnc3c2-c2ccccn2)ccn1)C(CC(F)F)c1ccc(F)cc1` (single isomer, unassigned) [Example 123, (2R or S)-4,4-difluoro-2-(4-fluorophenyl)-N-{4-[7-(pyridin-2-yl)-4-(2,2,2-trifluoroethoxy)-5H-pyrrolo[3,2-d]pyrimidin-6-yl]pyridin-2-yl}butanamide], the IC50 in test [1] was 4.5 nM; in test [2] (setting [3]), over 20000 nM.

Consider `COc1cc(F)nc2c(-c3ccccn3)c(-c3ccnc(NC(=O)C(CC(F)F)c4ccc(F)cc4)c3)[nH]c12` (racemic) [Example 39, (rac)-4,4-difluoro-N-{4-[5-fluoro-7-methoxy-3-(pyridin-2-yl)-1H-pyrrolo[3,2-b]pyridin-2-yl]pyridin-2-yl}-2-(4-fluorophenyl)butanamide], for which the IC50 in test [1] is 19 nM; in test [2] (setting [3]), over 20000 nM.

With `O=C(Nc1cc(-c2[nH]c3cccnc3c2-c2ncccn2)ccn1)C(CC(F)F)c1ccc(F)cc1` (racemic) [Example 112, (2RS)-4,4-difluoro-2-(4-fluorophenyl)-N-[4-(3-pyrimidin-2-yl-1H-pyrrolo[3,2-b]pyridin-2-yl)-2-pyridyl]butanamide], the figures for the IC50 in test [1] and in test [2] (setting [3]) were 10.1 nM and over 20000 nM, respectively.

As for `O=C(Nc1cc(-c2[nH]c3cc(F)cnc3c2-c2ccccc2)ccn1)C(CC(F)F)c1ccc(F)cc1` (single isomer, unassigned; (+)) [Example 21, (+)-4,4-difluoro-2-(4-fluorophenyl)-N-[4-(6-fluoro-3-phenyl-1H-pyrrolo[3,2-b]pyridin-2-yl)pyridin-2-yl]butanamide], the figures for the IC50 in test [1] and in test [2] (setting [4]) were 4.21 nM and over 20000 nM, respectively.

For the compound `O=C(Nc1cc(-c2[nH]c3cccnc3c2-c2ccccn2)ccn1)C(CC(F)F)c1ccc(F)cc1` (single isomer, unassigned; (-)) [Example 12, (−)-4,4-difluoro-2-(4-fluorophenyl)-N-{4-[3-(pyridin-2-yl)-1H-pyrrolo[3,2-b]pyridin-2-yl]pyridin-2-yl}butanamide], the IC50 in test [1] was 4.45 nM; in test [2] (setting [4]), over 20000 nM.

As for `COc1cc(F)nc2c(-c3ccccn3)c(-c3ccnc(NC(=O)C(CC(F)F)c4ccc(F)cc4)c3)[nH]c12` (single isomer, unassigned; (+)) [Example 40, (+)-4,4-difluoro-N-{4-[5-fluoro-7-methoxy-3-(pyridin-2-yl)-1H-pyrrolo[3,2-b]pyridin-2-yl]pyridin-2-yl}-2-(4-fluorophenyl)butanamide], the IC50 is 3.69 nM in test [1] and over 20000 nM in test [2] (setting [3]).

Consider `COc1cnc2c(-c3ccccn3)c(-c3ccnc(NC(=O)C(CC(F)F)c4ccc(F)cc4)c3)[nH]c2n1` (single isomer, unassigned) [Example 103, 4,4-difluoro-2-(4-fluorophenyl)-N-{4-[3-methoxy-7-(pyridin-2-yl)-5H-pyrrolo[2,3-b]pyrazin-6-yl]pyridin-2-yl}butanamide], for which the IC50 in test [1] was 1.97 nM; in test [2] (setting [4]) it was over 20000 nM.

Take `O=C(Nc1cc(-c2[nH]c3nccnc3c2-c2ccccn2)ccn1)C(CC(F)(F)F)c1ccc(F)cc1` (racemic) [Example 119, (2RS)-4,4,4-trifluoro-2-(4-fluorophenyl)-N-{4-[7-(pyridin-2-yl)-5H-pyrrolo[2,3-b]pyrazin-6-yl]pyridin-2-yl}butanamide]: the IC50 is 2.71 nM in test [1] and over 20000 nM in test [2] (setting [3]).

With `O=C(Nc1cc(-c2[nH]c3cccnc3c2-c2cccc(F)n2)ccn1)C(CC(F)F)c1ccc(F)cc1` (racemic) [Example 25, 4,4-difluoro-2-(4-fluorophenyl)-N-{4-[3-(6-fluoropyridin-2-yl)-1H-pyrrolo[3,2-b]pyridin-2-yl]pyridin-2-yl}butanamide], the figures for the IC50 in test [1] and in test [2] (setting [3]) were 2.77 nM and over 20000 nM, respectively.

Take `O=C(Nc1cc(-c2[nH]c3cccnc3c2-c2ccccn2)ccn1)C(CC(F)F)c1ccc(F)cc1` (single isomer, unassigned; (+)) [Example 11, (+)-4,4-difluoro-2-(4-fluorophenyl)-N-{4-[3-(pyridin-2-yl)-1H-pyrrolo[3,2-b]pyridin-2-yl]pyridin-2-yl}butanamide]: the IC50 in test [1] was 1.2 nM; in test [2] (setting [3]) it was over 20000 nM.

Take `O=C(Nc1cc(-c2[nH]c3c(N4CCNCC4)ccnc3c2-c2ccccn2)ccn1)C(CC(F)F)c1ccc(F)cc1` (single isomer, unassigned) [Example 94, (2R or S)-4,4-difluoro-2-(4-fluorophenyl)-N-{4-[7-(piperazin-1-yl)-3-(pyridin-2-yl)-1H-pyrrolo[3,2-b]pyridin-2-yl]pyridin-2-yl}butanamide]: the values for the IC50 in test [1] and in test [2] (setting [4]) were 2.31 nM and over 20000 nM, respectively.

In the case of `O=C(Nc1cc(-c2[nH]c3cc(F)cnc3c2-c2ccccc2)ccn1)C(CC(F)F)c1ccc(F)cc1` (racemic) [Example 19, 4,4-difluoro-2-(4-fluorophenyl)-N-[4-(6-fluoro-3-phenyl-1H-pyrrolo[3,2-b]pyridin-2-yl)pyridin-2-yl]butanamide], the IC50 in test [1] was 9.22 nM; in test [2] (setting [3]) it was over 20000 nM.

Regarding `Cc1cc2[nH]c(-c3ccnc(NC(=O)C(CC(F)F)c4ccc(F)cc4)c3)c(-c3ccccn3)c2nc1F` (single isomer, unassigned) [Example 34, 4,4-difluoro-N-{4-[5-fluoro-6-methyl-3-(pyridin-2-yl)-1H-pyrrolo[3,2-b]pyridin-2-yl]pyridin-2-yl}-2-(4-fluorophenyl)butanamide], the IC50 was 3.79 nM in test [1] and over 20000 nM in test [2] (setting [3]).

Take `O=C(Nc1cc(-c2[nH]c3cc(F)cnc3c2-c2ccccc2)ccn1)C(CC(F)F)c1ccc(F)cc1` (single isomer, unassigned; (-)) [Example 20, (−)-4,4-difluoro-2-(4-fluorophenyl)-N-[4-(6-fluoro-3-phenyl-1H-pyrrolo[3,2-b]pyridin-2-yl)pyridin-2-yl]butanamide]: the IC50 in test [1] was 132 nM; in test [2] (setting [3]) it was over 20000 nM.

Source of the values: patent US12692261B2, “Substituted heterocyclic compounds and therapeutic uses thereof” (Bayer Aktiengesellschaft, priority 2020, dated 2026).
